Assays:
Format in all cases: cell-based
[1] = tested on: PNT1A (normal prostate cells); experiment: MTT cell proliferation assay, PNT1A cells; conditions: 72 h, non-tumoral cells, read-out: Estimated IC50, PNT1A
[2] = tested on: MCF-7 cells (estrogen-responsive breast cancer cells); experiment: MTT cell proliferation assay, MCF-7 cells; conditions: 72 h
[3] = tested on: MCF-7 cells; experiment: Nuclear area analysis with ImageJ (Hoechst 33342-stained nuclei); conditions: MCF-7, 1 and 10 µM, 48 h
Excerpt: (§1) The nuclear measurements were achieved by converting 16-bit photomicrographs of Hoechst 33342-stained nuclei in different studied conditions into 8-bit images. Then, these imagens were autothresholded to binary photos using the default “Make binary” function of ImageJ (v. 1.49) software (NIH Image, Bethesda, MD, USA). Cell nuclei that are touching were separated and fragments were discarded based on area through “Analyze Particle” function. This function also provides several other information, such as nuclear area (NA), circumference, and form factor [26]. Furthermore, the “Nearest Neighbor Distance” (NND) was determined. This function allows measuring the distance between each cell nucleus and the nearest ones, providing information about cell distribution.

[4] = tested on: MCF-7 cells; experiment: Nearest neighbor distance analysis with ImageJ; conditions: MCF-7, 1 and 10 µM, 48 h
Excerpt: as §1

[5] = tested on: N27 (rat dopaminergic neuronal cells); experiment: MTT cell proliferation assay, N27 cells; conditions: 72 h, non-tumoral cells, read-out: Estimated IC50, N27
[6] = tested on: MCF-7 cells; experiment: Immunocytochemistry assay, Ki67 staining; conditions: 48 h
Description: MCF-7 cells were trypsinized and counted by the trypan-blue exclusion assay, and then cells were seeded with an initial density of 3 × 10^4 cells/mL in 24-well culture plates (Nunc, Apogent, Denmark) containing circular coverslips of 10 mm diameter. Following seeding (48 h), cells were treated with 1 and 10 µM concentrations of 5-FU, as positive controls, and steroid 19 for 48 h. Untreated cells were used as a negative control. After this period, photograph shots were acquired at an optical microscope coupled with a digital camera (Supplementary Material, S2). Subsequently, the medium was removed, and cells were fixed with 10% formalin (15 min, room temperature). After fixation, cells were washed three times with PBS, permeabilized, and blocked for non-specific binding sites for 1 h with 0.5% Triton X-100 and 6% BSA at room temperature. Cells were incubated at 4 °C with 30 μL/coverslip of primary antibody, rabbit polyclonal anti-Ki67 (1:50, Abcam Plc.), prepared in 0.3% BSA and 0.1% Triton X-100, overnight. Then, cells were washed three times with PBS and incubated for 1 h, at room temperature, with 30 μL/coverslip of a solution containing the secondary antibody, Alexa Fluor 488 donkey anti-rabbit (1:200, Life Technologies), and the nuclear marker Hoechst-33342 (1:500, Life Technologies) prepared in PBS. Lastly, the coverslips were washed three times with PBS, mounted on a drop of the fluoroshield mounting medium (Abcam, Plc.) on a microscope slide, and left to dry for 24 h. Photomicrographs were taken using an Axio Imager A1 microscope (Carl Zeiss, Göttingen, Germany) with the 40 × objective.

[7] = tested on: PC-3 cells (androgen-independent prostatic cancer); experiment: MTT cell proliferation assay, PC-3 cells; conditions: 72 h

IC50 ([2]; MTT, tumoral cells, read-out: Estimated IC50, MCF-7): 3.47 µM
IC50 ([7]; MTT, tumoral cells, read-out: Estimated IC50, PC-3): 19 µM
Substance: (E)-16-(2,3-Dichlorobenzylidene)-3-hydroxy-5α ,6α -epoxy-10,13-dimethyl-1,3,4,7,8,9,10,11,12,13,15,16-dodecahydro-2H-cyclopenta[α ]phenanthren-17(14H)-one [Compound 19]
IC50 [1]: 12.8 µM
decrease in cell proliferation ([2]; MCF-7, 10 µM): around 75%
cell proliferation relative to the control ([2]; MCF-7, 50 µM): ~0%
decrease in cell proliferation ([2]; MCF-7, 50 µM): ~100%
nuclear area (NA) relative to the control [3]: decreased significantly
cell distribution (nearest neighbor distance, NND) [4]: more random distribution with nuclei more spaced
IC50 [5]: 13.3 µM
Ki67-positive cells relative to control ([6]; MCF-7, 1 µM): none of the compounds significantly affected
Ki67-positive cells relative to control ([6]; MCF-7, 10 µM): statistically significant decrease
decrease on cell proliferation relative to the control ([7]; PC-3, 50 µM): higher than 75%

Reference: publication PMC10045663, “Synthesis, In Vitro Biological Evaluation of Antiproliferative and Neuroprotective Effects and In Silico Studies of Novel 16E-Arylidene-5α,6α-epoxyepiandrosterone Derivatives” (Biomedicines, 2023)
